Where two headings read alike, the source gives them in different places.
What was measured:
HEK293 = assay: MTT cell viability assay, HEK293; format: cell-based; conditions: Homo sapiens
Source text: (§1) Blokhin National Medical Research Center of Oncology (the Ministry of Health of the Russian Federation, Moscow).

PC-3 = assay: MTT cell viability assay, PC-3; format: cell-based, human; conditions: for IC50: Homo sapiens; for Selectivity index (SI): ratio of IC50 values healthy (HEK293) / PC-3
Source text: as §1

A549 = assay: MTT cell viability assay, A549; format: cell-based, human; conditions: for IC50: Homo sapiens; for Selectivity index (SI): ratio of IC50 values healthy (HEK293) / A549
Source text: as §1

RD TE32 = assay: MTT cell viability assay, RD TE32; format: cell-based, human; conditions: for IC50: Homo sapiens; for Selectivity index (SI): ratio of IC50 values healthy (HEK293) / RD TE32
Source text: as §1

HBL-100 = assay: MTT cell viability assay, HBL-100; format: cell-based, human; conditions: for IC50: Homo sapiens; for Selectivity index (SI): ratio of IC50 values healthy (HEK293) / HBL-100
Method: (§2) The cells were cultured in a humidified CO2 incubator (model 460-CE; Thermo Fisher Scientific, Waltham, MA, USA) at +37 °C and 5% CO2.
(§3) The percentage of the viable cells was calculated according to the following equation: cell viability (%) = 100 × (mean absorbance in the treatment group/mean absorbance in the control group). The results were expressed pictorially using Prism 6.0 (GraphPad Software, Boston, MA, USA).

HBL-100/Dox = assay: MTT cell viability assay, HBL-100/Dox; format: cell-based, human; conditions: for IC50: Homo sapiens; for Selectivity index (SI): ratio of IC50 values healthy (HEK293) / HBL-100/Dox
Method: as §2, §3

HCT116 = assay: MTT cell viability assay, HCT116; format: cell-based, human; conditions: for IC50: Homo sapiens, HCT-116; for Selectivity index (SI): ratio of IC50 values healthy (HEK293) / HCT116
Source text: as §1

human cancer cell lines = assay: MTT assay, panel of cancer cell lines; conditions: for IC50: Homo sapiens; for cytotoxicity in the screening studies: MTT screening, Table S1
Method: In this study, the human embryonic kidney cell line HEK293 was used as the non-cancerous cell line.
To investigate the cytotoxic activity of the compounds under study, the MTT colorimetric assay [45] was performed. […] After 72 h, 20 μL of 5 mg/mL solution of MTT (PanEco, Moscow, Russia), in sterile phosphate-buffered saline (PBS; PanEco, Moscow, Russia), was added to each well and further incubated for 4 h. Then, the medium with the compounds was removed, and the formed formazan crystals were dissolved in 100 μL of DMSO. […] The IC50 values were determined from dose-dependent curves, using Prism 6.0 (GraphPad Software, Boston, MA, USA).

MS = assay: MTT cell viability assay, MS; format: cell-based, human; conditions: for IC50: Homo sapiens; for Selectivity index (SI): ratio of IC50 values healthy (HEK293) / MS;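 as to IC50 (mean ± SD): MS is a melanocyte cell line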
Source text: as §1

MCF-7 = assay: MTT cell viability assay, MCF-7; format: cell-based, human; conditions: for IC50: Homo sapiens, MCF7; for Selectivity index (SI): ratio of IC50 values healthy (HEK293) / MCF-7
Source text: as §1

HEpG2 = assay: MTT cell viability assay, HEpG2; format: cell-based, human; conditions: for IC50: Homo sapiens, HEpG2, MTT, 72 h of treatment, read-out: IC50 Values (Mean ± SD); for Selectivity index (SI): ratio of IC50 values healthy (HEK293) / HEpG2
Source text: as §1

[1] = HEK293, MTT, 72 h of treatment, read-out: IC50 Values (Mean ± SD)
[2] = Table S1, HEK293, read-out: IC50 (mean ± SD)
[3] = PC-3, MTT, 72 h of treatment, read-out: IC50 Values (Mean ± SD)
[4] = Table S1, PC-3, read-out: IC50 (mean ± SD)
[5] = A549, MTT, 72 h of treatment, read-out: IC50 Values (Mean ± SD)
[6] = Table S1, A549, read-out: IC50 (mean ± SD)
[7] = RD TE32, MTT, 72 h of treatment, read-out: IC50 Values (Mean ± SD)
[8] = Table S1, RD TE32, read-out: IC50 (mean ± SD)
[9] = HBL-100, MTT, 72 h of treatment, read-out: IC50 Values (Mean ± SD)
[10] = Table S1, HBL-100, read-out: IC50 (mean ± SD)
[11] = HBL-100, 72 h, read-out: IC50 Values (Mean ± SD)
[12] = HBL-100, read-out: IC50 (mean ± SD)
[13] = HCT116, MTT, 72 h of treatment, read-out: IC50 Values (Mean ± SD)
[14] = MS, MTT, 72 h of treatment, read-out: IC50 Values (Mean ± SD)
[15] = MCF-7, MTT, 72 h of treatment, read-out: IC50 Values (Mean ± SD)

Row | Structure (SMILES) | IC50 (HEK293; [1]) [µM] | IC50 (HEK293; [2]) [µM] | IC50 (PC-3; [3]) [µM] | IC50 (PC-3; [4]) [µM] | Selectivity index (SI) (PC-3) | IC50 (A549; [5]) [µM] | IC50 (A549; [6]) [µM] | Selectivity index (SI) (A549) | IC50 (RD TE32; [7]) [µM] | IC50 (RD TE32; [8]) [µM] | Selectivity index (SI) (RD TE32) | IC50 (HBL-100; [9]) [µM] | IC50 (HBL-100; [10]) [µM] | Selectivity index (SI) (HBL-100) | IC50 (HBL-100/Dox; [11]) [µM] | IC50 (HBL-100/Dox; [12]) [µM] | Selectivity index (SI) (HBL-100/Dox) | IC50 (HCT116; [13]) [µM] | Selectivity index (SI) (HCT116) | cytotoxicity in the screening studies (human cancer cell lines) | other results
1 | COC(=O)[C@]12CCC(C(C)C)C1C1CCC3[C@@](C)(CCC#N)C(C(=O)CBr)CC[C@@]3(C)[C@]1(C)CC2 (some centres unmarked) [compound 30, 24-Bromo-2-cyano-4-oxo-3,4-seco-3,23-dinorlupan-28-oic acid methyl ester] | 24.2 ± 0.5 | 24.2 ± 0.45 | 34 ± 1.3 | 34.1 ± 1.28 | 0.71 | 27.7 ± 0.3 | 27.7 ± 0.31 | 0.87 | 7.1 ± 0.9 | 7.05 ± 0.91 | 3.41 | 3.6 ± 0.3 | 3.62 ± 0.33 | 6.72 | 4.5 ± 0.2 | 4.53 ± 0.21 | 5.37 | 13.5 ± 0.3 | 1.79 | relatively weak or moderate cytotoxicity | IC50 (human cancer cell lines; read-out: cytotoxic values (range)): 3.6 to 13.5 µM; IC50 (MS; [14]): 45.9 ± 2.2 µM; IC50 (MS; Table S1, MS, read-out: IC50 (mean ± SD)): 46 ± 2.2 µM; Selectivity index (SI) (MS): 0.53; IC50 (MCF-7; [15]): 12 ± 0.1 µM; IC50 (MCF-7; Table S1, MCF-7, read-out: IC50 (mean ± SD)): 12.04 ± 0.06 µM; Selectivity index (SI) (MCF-7): 2.02; IC50 (HEpG2): 49.6 ± 0.5 µM; Selectivity index (SI) (HEpG2): 0.49; melting point: 124.4 °C
2 | COC(=O)[C@]12CCC(C(C)C)C1C1CCC3[C@@]4(C)C[C@@H](C#N)C[C@H](O)C4CC[C@@]3(C)[C@]1(C)CC2 (stereo partly drawn) [compound 19, 2-Cyano-4β-hydroxy-3,4-seco-3,23-dinor-2,24-cyclolup-28-oic acid methyl ester] | 34.6 ± 1.1 | 34.6 ± 1.09 | 17.2 ± 0.7 | 17.2 ± 0.69 | 2.01 | 25.9 ± 1.8 | 25.9 ± 1.75 | 1.34 | 25.2 ± 0.1 | 25.17 ± 0.11 | 1.37 | 16 ± 0.9 | 16 ± 0.94 | 2.16 | 21.1 ± 2.2 | 21.1 ± 2.23 | 1.64 | 28.2 ± 2.1 | 1.23 | relatively weak or moderate cytotoxicity | IC50 (HCT116; Table S1, HCT116, read-out: IC50 (mean ± SD)): 28.2 ± 2.06 µM; IC50 (human cancer cell lines; read-out: moderate activity (range)): 16 to 77.8 µM; IC50 (MS; [14]): 22.2 ± 2 µM; Selectivity index (SI) (MS): 1.56; IC50 (MCF-7; [15]): 47.9 ± 0.3 µM; Selectivity index (SI) (MCF-7): 0.72; IC50 (HEpG2): 31.8 ± 2.7 µM; Selectivity index (SI) (HEpG2): 1.09; melting point: 189.7 °C

— publication PMC10298530, “Synthesis and Anticancer Activity of A-Ring-Modified Derivatives of Dihydrobetulin” (International Journal of Molecular Sciences, 2023)
